Measurements as given in patent US8951999B2, “Compounds” (Orexo AB, priority 2009, dated 2015).

target: T1, recombinant human mPGES-1 (Homo sapiens, UniProt O14684); assay: Assay B: mPGES-1 enzyme assay (modified); format: biochemical; settings: biological assay B (all other compounds); PGH2 final conc. 2 μM, HTRF; read-out: mPGES-1 inhibitory effect IC50
T1 sequence (O14684 1-152): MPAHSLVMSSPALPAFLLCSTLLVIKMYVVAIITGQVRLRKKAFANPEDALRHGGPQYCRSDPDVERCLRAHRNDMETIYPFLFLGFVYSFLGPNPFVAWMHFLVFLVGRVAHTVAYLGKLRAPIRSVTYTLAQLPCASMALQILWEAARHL
Procedure: Assay B: mPGES-1 Enzyme Assay (Modified)
The aim of this assay is to determine the affinity of a test compound for the mPGES-1 enzyme.
47 μl of recombinant human mPGES-1 (˜0.5 μg protein/well) containing microsomal suspension in a buffer containing GSH, (2.5 mmol/L L-Glutathione reduced, dissolved in 0.1 mol/L Phosphat Buffer pH 7.4) is dispensed in a 384-well plate and thereafter 1 μl of the test compound(s) is/are added and incubated for 25 minutes at room temperature. The enzyme reaction is started by the addition of 2 ul PGH2 (final conc. 2 μM) dissolved in water-free Diglyme. After 60 seconds the reaction is terminated by addition of a stop solution containing FeCl2 (10 μL 0.074 mol/l FeCl2). The samples are diluted between 1:25 in PBS (Phosphate Buffered Saline). 10 μl of the diluted samples are transferred to 384-well low volume plate. In order to quantify the amount of PGE2 that has been formed, a homogenous time resolved fluorescent (HTRF) detecting of PGE2 has been performed using a commercially available kit from Cisbio according to the manufactures recommendation. This HTRF-based assay has been described in detail (see: Goedken et al., J Biomol Screen, 2008, 13(7), 619-625). Briefly, the diluted samples are mixed with […] PGE2-d2 conjugate and 5 μl anti-PGE2 cryptate conjugate. After an incubation period of the plates over night, the fluorescence is measured by the use of an appropriate microplate reader.
The fluorescence of Europium cryptate (maxex=307 nm, maxem=620 nm) and d2-PGE2 (maxex=620 nm, maxem=665 nm) are measured.
The extent of the specific HTRF is measured as a ratio of the emission intensity at 665 nm vs. that at 620 nm at an excitation pulse of 320 nm. The quantification plate contains also wells with different concentrations of PGE2 as calibration curve for the calculation of the PGE2 concentrations from the HTRF ratio values.
From all mPGES enzyme assay the background is subtracted and the IC50 is calculated over a nonlinear regression with conventional software.

Compared with `CC(C)(C(=O)NCc1ccc(Cl)c(C(=O)Nc2ccc(OCC(F)F)c(C(=O)NC3CCCOC3)c2)c1)C(F)(F)F` (centres unmarked) [Example 123], `CC(C)(C(=O)NCc1ccc(Cl)c(C(=O)Nc2ccc(OCC(F)F)c(C(=O)NC3CCC4(CC3)CC4)c2)c1)C(F)(F)F` [Example 136] is 6.9-fold lower in IC50: 48 nM for the first, 7 nM for the second. The second is the more potent here.

`CC(C)(C(=O)NCc1ccc(Cl)c(C(=O)Nc2ccc(OCC(F)F)c(C(=O)NC3CC4CCC3C4)c2)c1)C(F)(F)F` (centres unmarked) [Example 124] and `CC(C)(C(=O)NCc1ccc(Cl)c(C(=O)Nc2ccc(OCC(F)F)c(C(=O)NCC3CCC3)c2)c1)C(F)(F)F` [Example 141] are the same in IC50: 5 nM for the first, 5 nM for the second.

`CC(C)(C(=O)NCc1ccc(Cl)c(C(=O)Nc2ccc(OCC(F)F)c(C(=O)Nc3ccc(Cl)c(Cl)c3)c2)c1)C(F)(F)F` [Example 125] and `CC(C)(C(=O)NCc1ccc(Cl)c(C(=O)Nc2ccc(OCC(F)F)c(C(=O)Nc3ccc(F)c(Cl)c3)c2)c1)C(F)(F)F` [Example 128] are the same in IC50: 5 nM for the first, 5 nM for the second.

`CC(C)(C(=O)NCc1ccc(Cl)c(C(=O)Nc2ccc(OCC(F)F)c(C(=O)Nc3ccc(Cl)c(C(F)(F)F)c3)c2)c1)C(F)(F)F` [Example 126] and `CC(C)(C(=O)NCc1ccc(Cl)c(C(=O)Nc2ccc(OCC(F)F)c(C(=O)Nc3ccc(OC(F)(F)F)c(Cl)c3)c2)c1)C(F)(F)F` [Example 130] are the same in IC50: 4 nM for the first, 4 nM for the second.

Compared with `CC(C)(C(=O)NCc1ccc(Cl)c(C(=O)Nc2ccc(OCC(F)F)c(C(=O)Nc3nc4c(s3)CCC4)c2)c1)C(F)(F)F` [Example 127], `CC(NC(=O)c1cc(NC(=O)c2cc(CNC(=O)C(C)(C)C(F)(F)F)ccc2Cl)ccc1OCC(F)F)C1CC1` (centres unmarked) [Example 135] is 2.7-fold lower in IC50: 19 nM for the first, 7 nM for the second. The second is the more potent here.

`CC(C)(C(=O)NCc1ccc(Cl)c(C(=O)Nc2ccc(OCC(F)F)c(C(=O)NCC3CCCCC3)c2)c1)C(F)(F)F` [Example 129] and `CC(C)(C(=O)NCc1ccc(Cl)c(C(=O)Nc2ccc(OCC(F)F)c(C(=O)NCCC3CC3)c2)c1)C(F)(F)F` [Example 143] are within 1.5-fold of each other in IC50: 5 nM for the first, 6 nM for the second.

First: CC(C)(C(=O)NCc1ccc(Cl)c(C(=O)Nc2ccc(OCC(F)F)c(C(=O)Nc3ccnc4ccccc34)c2)c1)C(F)(F)F [Example 131]
Second: CC(C)(C(=O)NCc1ccc(Cl)c(C(=O)Nc2ccc(OCC(F)F)c(C(=O)Nc3ccccc3Cl)c2)c1)C(F)(F)F [Example 139]
The IC50 of the first is 1.5-fold higher: 9 nM for the first, 6 nM for the second. The second is the more potent here.

`CC(C)(C(=O)NCc1ccc(Cl)c(C(=O)Nc2ccc(OCC(F)F)c(C(=O)NCc3ccccc3OC(F)(F)F)c2)c1)C(F)(F)F` [Example 132] and `CC(C)(C(=O)NCc1ccc(Cl)c(C(=O)Nc2ccc(OCC(F)F)c(C(=O)NCc3ncccc3C(F)(F)F)c2)c1)C(F)(F)F` [Example 138] are within 1.5-fold of each other in IC50: 6 nM for the first, 5 nM for the second.

`CC(C)(C(=O)NCc1ccc(Cl)c(C(=O)Nc2ccc(OCC(F)F)c(C(=O)Nc3ccc(Br)c(F)c3)c2)c1)C(F)(F)F` [Example 133] and `CC(C)(C(=O)NCc1ccc(Cl)c(C(=O)Nc2ccc(OCC(F)F)c(C(=O)Nc3ccc(F)c(Cl)c3F)c2)c1)C(F)(F)F` [Example 134] are within 1.5-fold of each other in IC50: 6 nM for the first, 7 nM for the second.

`CC(C)(C(=O)NCc1ccc(Cl)c(C(=O)Nc2ccc(OCC(F)F)c(C(=O)Nc3ccncc3Cl)c2)c1)C(F)(F)F` [Example 137] and `CC(C)(C(=O)NCc1ccc(Cl)c(C(=O)Nc2ccc(OCC(F)F)c(C(=O)Nc3cc(Cl)c4cc[nH]c4c3)c2)c1)C(F)(F)F` [Example 144] are within 1.5-fold of each other in IC50: 9 nM for the first, 7 nM for the second.

`CC(C)CNC(=O)c1cc(NC(=O)c2cc(CNC(=O)C(C)(C)C(F)(F)F)ccc2Cl)ccc1OCC(F)F` [Example 140] and `CC(C)(C(=O)NCc1ccc(Cl)c(C(=O)Nc2ccc(OCC(F)F)c(C(=O)NC3CCC(C(F)F)CC3)c2)c1)C(F)(F)F` (centres unmarked) [Example 142] are within 1.5-fold of each other in IC50: 8 nM for the first, 6 nM for the second.

First: CC(C)(C(=O)NCc1ccc(Cl)c(C(=O)Nc2ccc(OCC(F)F)c(C(=O)Nc3ccc(F)c(Cl)c3)c2)c1Cl)C(F)(F)F [Example 145, N-[4-(2,2-difluoroethyl)oxy-3-(4-fluoro-3-chlorophenyl)aminocarbonyl-phenyl]-2,6-dichloro-3-[(2,2,2-trifluoro-1,1-dimethyl-ethyl)carbonylamino]methyl-benzamide]
Second: CC(C)(C(=O)NCc1ccc(Cl)c(C(=O)Nc2ccc(OCC(F)F)c(C(=O)Nc3ccc(Cl)c(F)c3)c2)c1Cl)C(F)(F)F [Example 156]
The IC50 of the first is 10-fold higher: 10 nM for the first, 1 nM for the second.

First: CC(C)(C(=O)NCc1ccc(Cl)c(C(=O)Nc2ccc(OCC(F)F)c(C(=O)NCCC(F)(F)F)c2)c1Cl)C(F)(F)F [Example 146]
Second: CC(C)(C(=O)NCc1ccc(Cl)c(C(=O)Nc2ccc(OCC(F)F)c(C(=O)NCC(F)(F)F)c2)c1Cl)C(F)(F)F [Example 147]
The IC50 of the first is 1.8-fold higher: 14 nM for the first, 8 nM for the second.

Going from `CC(NC(=O)c1cc(NC(=O)c2c(Cl)ccc(CNC(=O)C(C)(C)C(F)(F)F)c2Cl)ccc1OCC(F)F)C1CC1` (centres unmarked) [Example 148] to `CC(C)(C(=O)NCc1ccc(Cl)c(C(=O)Nc2ccc(OCC(F)F)c(C(=O)NCC3CC3)c2)c1Cl)C(F)(F)F` [Example 152], the IC50 rises from 1 nM to 11 nM (11-fold). The first is the more potent here.

First: CC(C)(C(=O)NCc1ccc(Cl)c(C(=O)Nc2ccc(OCC(F)F)c(C(=O)NC3CCC(C(F)F)CC3)c2)c1Cl)C(F)(F)F (centres unmarked) [Example 149]
Second: CC(C)(C(=O)NCc1ccc(Cl)c(C(=O)Nc2ccc(OCC(F)F)c(C(=O)NC3CCC(F)(F)CC3)c2)c1Cl)C(F)(F)F [Example 157]
The IC50 of the first is 5.5-fold lower: 4 nM for the first, 22 nM for the second. The first is the more potent here.

Going from `CC(C)(C(=O)NCc1ccc(Cl)c(C(=O)Nc2ccc(OCC(F)F)c(C(=O)Nc3cccc(Cl)c3)c2)c1Cl)C(F)(F)F` [Example 150] to `CC(C)(C(=O)NCc1ccc(Cl)c(C(=O)Nc2ccc(OCC(F)F)c(C(=O)Nc3cc(F)cc(Cl)c3)c2)c1Cl)C(F)(F)F` [Example 151], the IC50 falls from 2 nM to 1 nM (2-fold). The second is the more potent here.

First: Cc1ccc(Cl)cc1NC(=O)c1cc(NC(=O)c2c(Cl)ccc(CNC(=O)C(C)(C)C(F)(F)F)c2Cl)ccc1OCC(F)F [Example 153]
Second: COc1cc(Cl)ccc1NC(=O)c1cc(NC(=O)c2c(Cl)ccc(CNC(=O)C(C)(C)C(F)(F)F)c2Cl)ccc1OCC(F)F [Example 158]
The IC50 of the first is 2.5-fold higher: 5 nM for the first, 2 nM for the second. The second is the more potent here.

`CC(C)(C(=O)NCc1ccc(Cl)c(C(=O)Nc2ccc(OCC(F)F)c(C(=O)NC3CC(F)(F)C3)c2)c1Cl)C(F)(F)F` [Example 154] and `CC(NC(=O)c1cc(NC(=O)c2c(Cl)ccc(CNC(=O)C(C)(C)C(F)(F)F)c2Cl)ccc1OCC(F)F)C(F)(F)F` (centres unmarked) [Example 159] are within 1.5-fold of each other in IC50: 9 nM for the first, 7 nM for the second.

First: CC1(NC(=O)c2cc(NC(=O)c3c(Cl)ccc(CNC(=O)C(C)(C)C(F)(F)F)c3Cl)ccc2OCC(F)F)CCOCC1 [Example 155]
Second: CC(O)(C(=O)NCc1ccc(Cl)c(C(=O)Nc2ccc(OCC(F)F)c(C(=O)Nc3ccc(Br)cc3)c2)c1)C(F)(F)F (centres unmarked) [Example 166]
The IC50 of the first is 19-fold higher: 150 nM for the first, 8 nM for the second.

`COC(C)(C)C(=O)NCc1ccc(Cl)c(C(=O)Nc2ccc(OCC(F)F)c(C(=O)Nc3ccc(Br)cc3)c2)c1` [Example 160] and `CC(C)(O)C(=O)NCc1ccc(Cl)c(C(=O)Nc2ccc(OCC(F)F)c(C(=O)Nc3ccc(Br)cc3)c2)c1` [Example 172] are within 1.5-fold of each other in IC50: 7 nM for the first, 6 nM for the second.

Going from `CN1CCC[C@H]1C(=O)NCc1ccc(Cl)c(C(=O)Nc2ccc(OCC(F)F)c(C(=O)Nc3ccc(Br)cc3)c2)c1` [Example 161] to `O=C(Nc1ccc(OCC(F)F)c(C(=O)Nc2ccc(Br)cc2)c1)c1cc(CNC(=O)C2CCCN2c2nccs2)ccc1Cl` (centres unmarked) [Example 164], the IC50 rises from 13 nM to 79 nM (6.1-fold). The first is the more potent here.

`O=C(Nc1ccc(OCC(F)F)c(C(=O)Nc2ccc(Br)cc2)c1)c1cc(CNC(=O)C2(O)CC2)ccc1Cl` [Example 162] and `CC1(C(=O)NCc2ccc(Cl)c(C(=O)Nc3ccc(OCC(F)F)c(C(=O)Nc4ccc(Br)cc4)c3)c2)CCCO1` (centres unmarked) [Example 163] are within 1.5-fold of each other in IC50: 8 nM for the first, 6 nM for the second.

`CC(C)(C#N)C(=O)NCc1ccc(Cl)c(C(=O)Nc2ccc(OCC(F)F)c(C(=O)Nc3ccc(Br)cc3)c2)c1` [Example 165] and `CC(N)(C(=O)NCc1ccc(Cl)c(C(=O)Nc2ccc(OCC(F)F)c(C(=O)Nc3ccc(Br)cc3)c2)c1)C(F)(F)F` (centres unmarked) [Example 171] are within 1.5-fold of each other in IC50: 8 nM for the first, 6 nM for the second.

Going from `Cn1cccc1C(=O)NCc1ccc(Cl)c(C(=O)Nc2ccc(OCC(F)F)c(C(=O)Nc3ccc(Br)cc3)c2)c1` [Example 167] to `Cc1nc(C(=O)NCc2ccc(Cl)c(C(=O)Nc3ccc(OCC(F)F)c(C(=O)Nc4ccc(Br)cc4)c3)c2)c(C)s1` [Example 168], the IC50 rises from 47 nM to 105 nM (2.2-fold).

Going from `O=C(Nc1ccc(OCC(F)F)c(C(=O)Nc2ccc(Br)cc2)c1)c1cc(CNC(=O)C(O)C(F)(F)F)ccc1Cl` (centres unmarked) [Example 169] to `CC(C(=O)NCc1ccc(Cl)c(C(=O)Nc2ccc(OCC(F)F)c(C(=O)Nc3ccc(Br)cc3)c2)c1)N1CCCC1` (centres unmarked) [Example 170], the IC50 rises from 9 nM to 50 nM (5.6-fold). The first is the more potent here.
